# Tested on: pulmonary lesions
# Test: Tumor-to-background ratio (TBR) during OTL38-based intraoperative molecular imaging (IMI)-guided lung resection
# Assay type: in vivo, patients
# Details: OTL38 0.025 mg/kg infused up to 24 h prior to surgery
# Procedure: Appropriate authorization was obtained from the University of Pennsylvania Perelman School of Medicine Institutional Review Board prior to data collection. Data was retrospectively analyzed from a prospectively collected database. Surgical procedures were performed by the surgeons at the Department of Thoracic Surgery at the Hospital of the University of Pennsylvania. A total of 279 patients were included in the study. All patients enrolled in the study presented with suspicious pulmonary nodules in conjunction with the recommendations from the Fleischner Society Guidelines for Pulmonary Nodules based on high-quality 1 mm slice thickness CT scanning. Based on institutional practice patterns, pre-operative tissue sampling and diagnosis was not mandatory. Selected patients underwent appropriate pre-operative clearance and metastatic disease work up prior to operative scheduling with video-assisted thoracoscopic surgical (VATS) lobectomy being the procedure of choice.
# Analyzed patients underwent infusion of the study drug OTL38 (0.025 mg/kg) up to 24 h prior to surgery. OTL38 (C61H63N9Na4O17S4, MW: 1414.42) is a folate analog conjugated to the NIR dye, S0456. OTL38 excites at 774-776 nm and emits at 794-796 nm. […] The iridium system utilizes an excitation laser with a wavelength of 805 nm, with fluorescence detection based on a bandpass filter selective to light ranging from 825 to 850 nm. […]
# Postoperatively, all the IMI images were uploaded to the deidentified secure database for analysis. Mean fluorescence intensity of the tumors was calculated from ImageJ (from National Institutes of Health) software with minimum 1000 pixels being included in the analysis. To minimize inter-observer bias, a protocol was established where the in situ and ex vivo TBRs were calculated by three blinded independent observers. Results were re-calculated by different observers if at least two blinded observer TBR measurements were not correlating (TBR values ±0.2 from each other). TBR results were then compared to final pathological diagnosis and analyzed for their correlation with in situ fluorescence. […]
smiles,measurement,setting,value
CC1(C)C(/C=C/C2=C(Oc3ccc(C[C@H](NC(=O)c4ccc(NCc5cnc6nc(N)[nH]c(=O)c6n5)cc4)C(=O)[O-])cc3)C(=C/C=C3\N(CCCCS(=O)(=O)[O-])c4ccc(S(=O)(=O)[O-])cc4C3(C)C)/CCC2)=[N+](CCCCS(=O)(=O)[O-])c2ccc(S(=O)(=O)[O-])cc21.[H+].[H+].[H+].[H+] [OTL38],"In situ TBR, mean","entire cohort of 279 patients, Iridium NIR imaging, ImageJ",2.84
same,"Ex vivo TBR bisected tumor, mean","entire cohort, bisected specimen, 0.025 mg/kg",4
same,"Ex vivo TBR (back table), mean","entire cohort, resected specimen",3.09

# From US20250057426A1, “COMPUTER-IMPLEMENTED METHODS AND ASSOCIATED SYSTEMS FOR DETECTING MALIGNANCY” (The Trustees of the University of Pennsylvania, priority 2021, published 2025)
